Series [1] is described as follows: Profiling: penetration of oxygen through candidate solution, measured with an OX10 oxygen microsensor. As to conditions: 0.1 M solution in propylene carbonate. The method, then: The penetration of oxygen through the solution of the candidates was determined using an OX10 oxygen microsensor from Unisense A/S in conjunction with a microprofiling laboratory stand.
A small capillary, cautiously filled with candidate solution in order to avoid bulk oxidation, was placed underneath the tip of the oxygen microsensor. The microprofiling stand was remotely controlled by the bundled software in order to move the microelectrode tip with five to ten micrometers between each concentration measurement. The microelectrode was calibrated prior to each candidate measurement using air-bubbled demineralised water and oxygen-free alkaline ascorbic acid solution.
The microsensor was used to profile oxygen-free alkaline ascorbic acid solution prior to and after measurement of each candidate to 1) ensure that physical damage during candidate measurement could be detected and to 2) provide baseline signal for normalisation of candidate profiles.
Each candidate profile was subtracted the baseline signal and normalised with respect to surface oxygen concentration in order to assess the candidate oxygen removal efficiency. A normalised signal of unity equals surface oxygen concentration and a normalised signal of 0.01 equals a dissolved oxygen concentration of 1 % of surface concentration.

Series [2] in a line: Solubility test of oxygen scavenger candidates (solvent added for a final 1 M, visual inspection of remaining solid). The format is physicochemical. As to conditions: stated as substantially lower than 1 M. The method, then:
In other cases, solubility tests with acetonitrile instead of propylene carbonate was performed.
In the case that solids remained after addition of solvent and vigorous stirring, the solubility of a candidate is assessed by visual inspection of the amount of remaining compound versus the amount of compound prior to solvent addition. In the case of a commercially available candidate dissolved in tetrahydrofuran (THF), the THF is removed under reduced pressure prior to addition of solvent.

SMILES strings stand for the structures.

In the case of `c1ccc(Pc2ccccc2)cc1` [Candidate 1, Diphenylphosphine], the Oxygen profile depth entry in series [1] was “ca. 75 µm”.

Take `CC(C)(C)P(CCCC[N+]1(C)CCOCC1)C(C)(C)C.[Br-]` [Candidate 10, N-[4-(di-tert-butylphosphino)butyl]-N-methylmorpholinium bromide]: in series [2], the “Concentration in propylene carbonate (PC)” value is on record as “lower than 1 M”.

(Values after patent publication EP3076168A1, “An electrochemical sensor” (Unisense Environment A/S, priority 2015, dated 2016).)
